Converted amounts (≈) assume the structure as drawn. Where two headings read alike, the source gives them in different places.
Key:
[1] = Liver microsomes metabolic stability, rat; assay type: in vitro ADME
Procedure: (§1) Metabolic stability of test compounds was evaluated in pooled rat, mouse, dog, and cynomolgus monkey liver microsomes (BD Biosciences, San Jose, CA). The incubation conditions were as follows: 1 μM of the tested compound, 1 mM NADPH, 0.5 mg/mL microsomal protein in 0.1 M potassium phosphate buffer (pH 7.4). Following a 5-minute pre-incubation period, the enzymatic reactions were initiated by the addition of NADPH and test compound to the microsomes diluted in phosphate buffered saline. The mixtures were incubated at 37° C. for 0, 20, 40, and 60 min.
(§2) Compound concentrations were assessed by LC-MS/MS. Intrinsic clearance based upon microsomal stability data was determined using a substrate depletion method and scaled to hepatic clearance using the well-stirred model (Obach, R. S.; Baxter, J. G.; Liston, T. E.; Silber, B. M.; Jones, B. C.; MacIntyre, F.; Rance, D. J.; Wastall, P., “The Prediction of Human Pharmacokinetic Parameters from Preclinical and in vitro Metabolism Data”, J. Pharmacol. Exp. Ther., (1997), 283 (1), 46-58).

[2] = Liver microsomes metabolic stability, cynomolgus monkey; assay type: in vitro ADME
Procedure: as §1, §2

[3] = In vitro plasma protein binding, human; assay type: in vitro ADME; conditions: pooled human plasma, read-out: PPB % (H/R/M) (converted)
Procedure: In vitro plasma protein binding (n=2) was determined in pooled mouse, rat, and human plasma (Bioreclamation, Inc., Hicksville, NY) by equilibrium dialysis using a Rapid Equilibrium Dialysis (RED) device (Pierce Biotechnology/Thermo Fisher Scientific; Rockford, IL) with a molecular weight cut-off of 8000 Daltons. Test compounds were added to plasma. Plasma samples were equilibriated with phosphate-buffered saline at 37° C. for 4 hours. Compound concentrations in post-dialysis plasma and buffer samples were measured by LC-MS/MS. The percent unbound fraction in plasma for each compound was calculated by dividing the compound concentration in the post-dialysis buffer by that measured in the post-dialysis plasma and multiplying by 100%.

[4] = Liver microsomes metabolic stability, human; assay type: in vitro ADME
c-Cbl = c-Cbl (Homo sapiens (Human), UniProt P22681); experiment: C-cbl LCK Ub TR-FRET assay (C-cbl Lck HTRF); assay type: biochemical
Outline: (§3)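 Biotin-Cbl-b (16 nM) or biotin-c-Cbl (12 nM) at 2× preincubated with compound 60 min, then His-LCK (120 nM), 1 mM ATP and MgCl2 (2× mix) added for 90 min at RT. Buffer: HEPES pH 7.0, DTT. UBE2D2–HA-ubiquitin transfer read by TR-FRET (665/615 nm); IC50 versus no-LCK and DMSO controls, 10-point dilutions.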

hWB = experiment: IL-2 hWB assay; assay type: cell-based; conditions: Homo sapiens
Cbl-b = Cbl-b (Homo sapiens (Human), UniProt Q13191); experiment: Cbl-b LCK Ub TR-FRET assay (Cbl-b Lck HTRF); assay type: biochemical
Outline: as §3

[5] = Liver microsomes metabolic stability, dog; assay type: in vitro ADME
Procedure: as §1, §2

CYP3A4 = CYP3A4 (Homo sapiens (Human), UniProt P08684); experiment: Reversible CYP inhibition, CYP3A4; assay type: in vitro ADME
Text: Reversible CYP inhibition by compounds described herein can be measured by protocols described by Halladay, J. S.; Delarosa, E. M.; Tran, D.; Wang, L.; Wong, S.; Khojasteh, S. C., “High-Throughput, 384-Well, LC-MS/MS CYP Inhibition Assay Using Automation, Cassette-Analysis Technique, and Streamlined Data Analysis”, Drug. Metab. Lett. 2011, 5 (3), 220-230, incorporated herein by reference.
In the CYP3A4 measurements, potency is less desirable.

LogD = assay type: physicochemical
Kinetic solubility = assay type: physicochemical; conditions: kinetic from dmso stock
Mouse PK = assay type: in vivo

Sequence of Cbl-b (Q13191 40-426): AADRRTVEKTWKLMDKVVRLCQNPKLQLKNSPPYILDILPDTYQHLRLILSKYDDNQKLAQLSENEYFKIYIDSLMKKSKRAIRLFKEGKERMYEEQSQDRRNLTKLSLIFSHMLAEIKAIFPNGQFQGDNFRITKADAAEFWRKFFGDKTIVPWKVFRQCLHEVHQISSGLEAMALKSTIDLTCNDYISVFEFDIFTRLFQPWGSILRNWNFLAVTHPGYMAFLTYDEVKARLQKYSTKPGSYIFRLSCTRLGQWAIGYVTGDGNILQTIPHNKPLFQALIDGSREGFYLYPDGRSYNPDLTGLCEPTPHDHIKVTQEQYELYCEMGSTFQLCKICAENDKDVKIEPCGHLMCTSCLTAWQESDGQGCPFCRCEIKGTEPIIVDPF
Sequence of CYP3A4 (P08684 whole entry): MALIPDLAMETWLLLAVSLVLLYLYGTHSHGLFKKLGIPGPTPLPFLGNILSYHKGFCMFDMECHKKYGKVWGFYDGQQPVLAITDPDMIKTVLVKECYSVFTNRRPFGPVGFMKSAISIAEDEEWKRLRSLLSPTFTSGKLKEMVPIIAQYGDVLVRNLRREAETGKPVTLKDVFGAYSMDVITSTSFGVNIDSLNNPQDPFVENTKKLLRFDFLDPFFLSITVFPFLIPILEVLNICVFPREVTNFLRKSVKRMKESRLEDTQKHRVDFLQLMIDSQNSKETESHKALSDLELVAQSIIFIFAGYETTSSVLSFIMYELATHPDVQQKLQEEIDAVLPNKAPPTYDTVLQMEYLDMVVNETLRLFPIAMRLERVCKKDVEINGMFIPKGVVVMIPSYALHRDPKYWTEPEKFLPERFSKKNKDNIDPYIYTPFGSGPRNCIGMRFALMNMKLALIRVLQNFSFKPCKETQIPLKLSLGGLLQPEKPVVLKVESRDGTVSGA
Sequence of c-Cbl (P22681 47-435): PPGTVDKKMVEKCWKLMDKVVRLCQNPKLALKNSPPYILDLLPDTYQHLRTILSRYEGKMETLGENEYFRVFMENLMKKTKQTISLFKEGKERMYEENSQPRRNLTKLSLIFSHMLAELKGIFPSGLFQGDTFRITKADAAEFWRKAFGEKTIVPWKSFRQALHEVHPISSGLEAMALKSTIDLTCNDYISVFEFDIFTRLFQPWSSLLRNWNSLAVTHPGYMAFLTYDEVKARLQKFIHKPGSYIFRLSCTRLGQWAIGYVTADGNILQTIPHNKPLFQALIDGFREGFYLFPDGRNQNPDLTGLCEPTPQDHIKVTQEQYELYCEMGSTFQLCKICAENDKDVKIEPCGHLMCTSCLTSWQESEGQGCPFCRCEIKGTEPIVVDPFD

LM (H/R/M/D/C) [1]: 38 | LM (H/R/M/D/C) [2]: 40 | fraction unbound at 4 h [3]: 0.14 | LM (H/R/M/D/C) [4]: 18 | IC50 (c-Cbl): 5 nM | EC50 (hWB): 250 nM | (fold-selectivity) (Cbl-b; Cbl-b and C-Cbl selectivity, Lck HTRF): (0.66x) | IC50 (Cbl-b; Table 4 comparative data, read-out: Lck IC50): 7.5 nM | IC50 (Cbl-b; read-out: Cbl-b Lck HTRF IC50): 7.5 nM | Lck IC50 (select.) (Cbl-b; selectivity, Table 4): 0.68 x | LM (H/R/M/D/C) [5]: 29 | IC50 (CYP3A4; M, read-out: CYP3A4 IC50 (M/T)): 0.64 µM | IC50 (CYP3A4; T): 6.7 µM | logD (LogD): 2.2 | solubility (Kinetic solubility; value in parentheses, not explained, read-out: Kinet. Solub. (uM), second value in parentheses): 8.5 µM (≈ 4.91 µg/mL) | solubility (Kinetic solubility; read-out: Kinet. Solub.): 8.3 µM (≈ 4.8 µg/mL) | Mouse PK unbound CLp (Mouse PK): (unbound CLp 683) | clearance (Mouse PK; plasma, intravenous, read-out: Mouse PK CLp): 41 mL/min/kg | bioavailability (Mouse PK; plasma, oral, read-out: Mouse PK F %): 3.4%
SMILES: CC(C)[C@H]1CN(C)CCN1Cc1cc(C(=O)Nc2cccc(C3(Cc4nncn4C)CC(F)(F)C3)c2)nc(C2CC2)c1 [Compound 224, (S)-6-cyclopropyl-N-(3-(3,3-difluoro-1-((4-methyl-4H-1,2,4-triazol-3-yl)methyl)cyclobutyl)phenyl)-4-((2-isopropyl-4-methylpiperazin-1-yl)methyl)picolinamide]

Reference: patent publication US20240300927A1, “AMIDES AS CBL-B INHIBITORS” (Genentech, Inc., priority 2021, published 2024)
